Data: US9144594B2, “Cathepsin L mediated diseases and associated methods and products” (University of Miami, priority 2005, dated 2015)

How the values were obtained:
cathepsin L = assay: Generation of dynamin p40 fragment in LPS-treated cultured podocytes (Western blot); format: cell-based, mouse; settings: LPS-treated podocytes expressing dynWT
From the text: Next, it was examined whether cathepsin L could process dynamin in vivo, and whether this processing required GTP binding by dynamin. To this end, cultured podocytes were infected with adenoviruses expressing dynWT as well as different dynamin mutants. Infected podocytes were subsequently treated with LPS. LPS treatment increases cathepsin L presence and the activity in the cytosol (FIG. 3), and thus is expected to induce generation of the 40 kD proteolytic fragment. Respective cytosols were probed using the GTPase antibodies in order to detect N-terminal 40 kD proteolytic fragment. Expression of dynWT in podocytes treated with LPS identified proteolytic fragments that traveled with the same mobility as fragments observed in vitro. […] Furthermore, significant amount of p40 was present in cells expressing dynR725A prior to LPS treatment. […] Given complete protection of cathepsin L cleavage by GTPγS, it was reasoned that LPS treatment was somehow inducing dynR725A self-assembly, which in turn was protecting dynR725A from cathepsin L cleavage. This in turn would explain ability of dynR725A to counteract LPS and PAN treatment (FIG. 1D). […] Biochemical difference between dynWT, dynK694A and dynR725A is that only dynR725A is impaired in the rate of GTP-hydrolysis of assembled dynamin. This is important because GTP-hydrolysis drives disassemble of dynamin. Thus, while all three dynamins are predicted to self-assemble by LPS treatment, only dynR725A will stay assembled due to its inability to hydrolyze GTP. Once assembled dynWT and dynK694A hydrolyze GTP they will fall apart and thus become accessible for cathepsin L cleavage.
To explore CatL-mediated dynamin cleavage in vivo, cultured podocytes were infected with adenoviruses encoding different dynamin mutants and subsequently treated with LPS (FIG. 19G). […] To confirm the identity of the cleavage site, the ELSGGA (SEQ ID NO.29) sequence was mutated to EQSVGA (SEQ ID NO.31) (for simplicity, the mutant is subsequently referred to as dynL356Q). […] Finally, a GTPase-defective dynamin mutant was examined. Dynamin carrying a mutation in its […] (dynR725A) oligomerizes, but is impaired in assembly-stimulated GTP-hydrolysis. DynR725A is therefore predicted to live longer in the assembled state.
Podocytes were grown under non-permissive conditions to 70% confluence. Cells were washed twice with 1×PBS and infected with 1.2 ml of serum-free DMEM media containing 100 μl transactivator virus, 100 μl virus expressing dyn1 or dyn2. After 2 h of infection at 37° C., media containing virus was replaced with full DMEM. If cells were treated with LPS or PAN, 50 μg/ml of LPS or 50 μg/ml PAN was added at this point. 18-24 h post-infection, cells were detached using trypsin and processed either for subcellular fractionation or tested in the motility assays as described in (Reiser et al., J Biol Chem 279, 34827-34832 (2004)). When stated, 20 μM of Z-FF-FMK CatL specific inhibitor (Calbiochem, San Diego, Calif.) was added simultaneously with addition of LPS.

LPS-induced proteinuria = LPS-induced proteinuria in mice treated with inhibitors, albuminuria by gel quantification; format: in vivo, mouse; settings: FIG. 29A
Procedure: Proteinuria was induced in male B6 mice (n=5 per group) by LPS injection. The mice were injected the mice with 250 μg ultrapure LPS (InvivoGen) intraperitoneally (i.p.) and started treatment with 200 μg cathepsin L inhibitor VI (Calbiochem) 30 min after disease induction. The LPS and inhibitor injections were repeated at 24 h and the mice were sacrificed at 48 h.
To quantify the level of proteinuria, urine was diluted with double-distilled water, boiled the diluted urine in sample buffer and analyzed the samples by NuPAGE (Invitrogen) followed by Coomassie blue staining BSA standards (from 0.125 to 2.0 μg) were run on the same gel and were used to identify and quantify urinary albumin bands. The albumin bands were quantified with ImageJ software (NIH) and determined the creatinine abundance from the same urine samples with a commercial kit (Cayman Chemical) according to the manufacturer's protocol.

[1] = system: CatL-mediated degradation of synaptopodin; assay: Western blot of isolated glomeruli, LPS-induced degradation of synaptopodin and RhoA; format: in vivo, mouse; settings: FIG. 29B
From the text: FIG. 29A: SDS-PAGE analysis of urines from control and LPS-injected mice (top). Quantitative analysis of albuminuria (bottom). FIG. 29B: Western blot analysis of isolated glomeruli showing that LPS causes the degradation of endogenous synaptopodin and RhoA.

CC(C)C[C@H](NC(=O)[C@H]1O[C@@H]1C(=O)O)C(=O)NCCCCN=C(N)N [E64]
dynamin cleavage / p40 generation with inhibitor, in words (cathepsin L): cleavage could be blocked | LPS-induced proteinuria (albuminuria), in words (LPS-induced proteinuria): ameliorate LPS-induced proteinuria | LPS-induced degradation of synaptopodin and RhoA, in words [1]: block the LPS-induced degradation of synaptopodin and RhoA
